These results are taken from PubChem BioAssay (NCI).

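The compound was tested at five concentrations on cells cultured in 96-well plates, with a 48-hour exposure period. The concentration for 50% growth inhibition is given as GI50. TGI: total growth inhibition.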

Among the test systems are M19-MEL melanoma; SF-268 CNS; XF 498 CNS; SNB-78 CNS; HOP-92 NSCLC; RXF-631 renal; DLD-1 colon; LXFL 529 NSCLC; SF-295 CNS; DMS 273 small cell lung; HOP-18 NSCLC; T-47D breast.
What all share (test): NCI-60 cell line screen, 48 h

Take `CCC(C(=O)O)c1ccc(OC)cc1` (stereo not drawn): the TGI in the assay with M19-MEL melanoma, in the assay on SF-268 CNS, with XF 498 CNS, with SNB-78 CNS, in the assay with HOP-92 NSCLC and in the assay on RXF-631 renal was above 100 µM in each case. Also, the TGI in the assay on DLD-1 colon, in the assay with LXFL 529 NSCLC, in the assay with SF-295 CNS and in the assay on DMS 273 small cell lung was above 100 µM throughout.
In the case of `C=C(C)C(=O)OC1C/C(CO)=C\C(O)C/C(C)=C/C2OC(=O)C(=C)C21` (stereo not drawn), the TGI was 92.7 µM in the assay with M19-MEL melanoma; 57.8 µM with SF-268 CNS; 29.3 µM in the assay with XF 498 CNS; above 100 µM with SNB-78 CNS; 38.2 µM with HOP-92 NSCLC; 36.7 µM with RXF-631 renal. The TGI with HOP-18 NSCLC was 83.4 µM; in the assay with LXFL 529 NSCLC, 32.2 µM; in the assay with SF-295 CNS, above 100 µM; in the assay with DMS 273 small cell lung, above 100 µM.
`CCCCC#C[I+]c1ccccc1`: the TGI in the assay with M19-MEL melanoma stood at 30.1 µM; in the assay on SF-268 CNS it was 39.7 µM; in the assay on XF 498 CNS, 28.6 µM; in the assay with SNB-78 CNS, 60.3 µM; with HOP-92 NSCLC, 24.1 µM; in the assay on RXF-631 renal, 35.6 µM. The TGI in the assay on DLD-1 colon worked out at 38.2 µM; in the assay with HOP-18 NSCLC it was 27.6 µM; in the assay on LXFL 529 NSCLC it was 24.6 µM; with SF-295 CNS it was 43.5 µM; in the assay on DMS 273 small cell lung, 40.9 µM.
In the case of `CC(C)CCS(=O)(=O)OCCCCOS(=O)(=O)CCC(C)C`, the TGI in the assay with M19-MEL melanoma, with SF-268 CNS, in the assay on SNB-78 CNS, with DLD-1 colon, with LXFL 529 NSCLC and in the assay on SF-295 CNS was above 100 µM in each case. The same molecule yielded a TGI in the assay with DMS 273 small cell lung above 100 µM.
Consider `COc1cc(Br)cc2cc(-c3cn4ccsc4n3)c(=O)oc12`, for which the TGI is above 100 µM with SF-268 CNS, 71.9 µM in the assay with HOP-92 NSCLC, above 100 µM in the assay with T-47D breast and 76.6 µM in the assay on SF-295 CNS.
As for `Cc1ccccc1C(=O)N1CCc2c([nH]c3ccccc23)C1`, the TGI in the assay with SF-268 CNS was above 100 µM; in the assay with HOP-92 NSCLC, 44.4 µM; with T-47D breast it was 71.8 µM; in the assay on SF-295 CNS, above 100 µM.
On to `O=C(NC(=O)c1ccccc1[N+](=O)[O-])Nc1ccc(Oc2ncc(Br)cn2)c(Cl)c1`, for which the GI50 with M19-MEL melanoma is below 0.0229 µM; in the assay with XF 498 CNS, below 0.0251 µM; in the assay on DLD-1 colon, below 0.0201 µM; in the assay on HOP-18 NSCLC it was above 100 µM; with LXFL 529 NSCLC, below 0.0224 µM; in the assay with SF-295 CNS it was below 0.0184 µM. For the same molecule, the TGI was 0.056 µM in the assay on RXF-631 renal, above 100 µM in the assay with HOP-18 NSCLC, 0.0465 µM with SF-295 CNS and 0.0212 µM in the assay on DMS 273 small cell lung.
On to `NC(=O)NCCCC(NC(=O)OCCCCn1ccc(=O)[nH]c1=O)C(=O)O` (stereo not drawn), for which the TGI with SF-268 CNS, in the assay with HOP-92 NSCLC, with T-47D breast and in the assay with SF-295 CNS was above 100 µM throughout.
As to `O=C1/C(=C\c2ccccc2)C(NC2CCCCC2)c2ccccc21` (stereo not drawn), the TGI stood at 13 µM with SF-268 CNS, 4.8 µM in the assay with HOP-92 NSCLC, 4.69 µM in the assay on T-47D breast and 33.5 µM in the assay with SF-295 CNS.
The matching figures for `NC(N)=N/N=C/c1c(-c2ccc(N)cc2)nc2sccn12`: above 100 µM, above 100 µM, 90.3 µM and 55.6 µM.
For `COC(=O)c1c(C)cccc1C1CN=NC12Cc1ccc(C)cc1C2=O` (stereo not drawn) the same measures were above 100 µM, above 100 µM, 49.8 µM and above 100 µM.
For `O=C1C=CC(=O)c2c1ccc1c3ccccc3n(CCCCCCCCCCCCn3c4ccccc4c4ccc5c(c43)C(=O)C=CC5=O)c21` the same measures were above 100 µM, above 100 µM, above 100 µM and above 100 µM.
As for `CC(C)=CCc1c2c(c3occ(-c4ccc(O)cc4)c(=O)c3c1O)CC(C(C)(C)O)O2` (stereo not drawn), the TGI with SF-268 CNS was 48.5 µM; in the assay on HOP-92 NSCLC, 33.5 µM; in the assay with T-47D breast it was 34.1 µM; in the assay with SF-295 CNS, 25 µM.
Consider `Nn1c(-c2ccccc2)nn(C(=O)c2ccccc2)c1=O`, for which the TGI in the assay on SF-268 CNS, in the assay with HOP-92 NSCLC, in the assay on T-47D breast and in the assay on SF-295 CNS was above 100 µM each time.
For `COc1ccc2cc(NC(=O)N/N=C\c3ccc([N+](=O)[O-])cc3)ccc2c1`, the TGI with SF-268 CNS is 55.4 µM; with HOP-92 NSCLC, above 100 µM; in the assay with T-47D breast, above 100 µM; with SF-295 CNS, above 100 µM.
